Measured values as given in patent US20060210479A1 (Dow Global Technologies Inc., priority 2004, published 2006).
Where two headings read alike, the source gives them in different places.

What was measured:
[1] = system: T84 cell line; experiment: Chelate permeability: fluorescence of cytoplasm and membrane fractions; type: cell-based, human; settings: 1 mM chelate, 2 h, Table 4
[2] = system: Caco-2 cell line; experiment: as above; type: cell-based, human
[3] = system: RBL-2H3 cell line; experiment: as above; type: cell-based, rat
Procedure: Tb-PCTMB (Tb(III) 3,6,9-tris(methylene phosphonic acid n-butyl ester)-3,6,9,15-tetraazabicyclo[9.3.1]pentadeca-1(15),11,13-triene) was tested for permeability to abnormal and disease-state cells.
RBL-2H3 is a rat basophilic leukemia cell line. These cells were grown in Iscove's Medium supplemented with 2 mM L-glutamnine, penicillin/streptomycin (100 IU/mL, 100 μg/mL) and 10% FBS. Cells were maintained at 5% CO2 and 95% humidity. PZ-HPV-7 cell line was derived from epithelial cells cultured from normal prostate tissue. They were grown in Keratinocyte-Serum Free Medium with human recombinant EGF and bovine pituitary extract supplemented with 50 μg/mL gentamicin and penicillin/streptomycin (100 IU/mL, 100 μg/mL). All media and supplements were purchased from Gibco BRL (Grand Island, N.Y., USA). All cell lines were obtained from ATCC and were maintained at 37° C., 5% CO2 and 95% humidity.
Cells were grown to confluence in T-150 flasks (about 2×10^6 cells). […] Cells were then removed from the flask by manual scraping. Cells were transferred to a 50-mL conical tube and centrifuged (400×g) for 5 minutes and the test material removed.
Cells were grown as described herein (Example 1). Cells were grown to confluence in T-150 flask (about 2×10^6 cells). […] Cells were then removed from the flask by manual scraping. Cells were transferred to a 50-mL conical tube and centrifuged (400×g) for 5 minutes and the test material removed.
Furthermore, one analogue, QCTMP (FIG. 26), having lesser lipophilic character (a free phosphonic acid moiety) was evaluated. […] In this study, the cytoplasm and membrane fractions were extracted by Mem-PER Eukaryotic Membrane Protein Extraction Reagent Kit as described by the manufacturers (Pierce Biotechnology, Rockford, Ill.) and analyzed by a Fluor-S Multilmager.

[4] = system: normal cheek pouch tissue; settings: 2 mM solution topical, 10 minutes, readings Adjusted Volume CNT*mm2
[5] = system: SK-MES cells; settings: for EuQCTME Cell Binding (fluorescence per well): 1 mM
[6] = system: NCM-460 cells; settings: for EuQCTME Cell Binding (fluorescence per well): 1 mM
[7] = system: DU145 cells; settings: for EuQCTME Cell Binding (fluorescence per well): 1 mM
[8] = system: HLAC cells; settings: for EuQCTME Cell Binding (fluorescence per well): 1 mM
[9] = system: Caco-2 cells; settings: 1 mM
[10] = system: excised human colorectal tissue; settings: 2 mM/5% ethanol aerosol spray, rinsing, UV 320 nm
Procedure: Excised tissue was received from human patients undergoing radical resection of the colon as a result of invasive cancer. Sections of tissue were received within 30 minutes of resection and the chelate solution applied as an aerosol spray followed by sequential aqueous rinsing to remove unbound chelate. The resulting tissue was then visualized under UV irradiation (320 nm) to detect the presence of the chelate (red-shifted emission).

[11] = system: Caco-2 cells; settings: 1 mM, 1 h
Source text: (§1) Before images were captured, an aliquot of the HEPES binding buffer was mounted on a slide and observed for any background fluorescence.

[12] = system: NCM460 cells; settings: 1 mM, 1 h
Source text: as §1

[13] = system: human cancer cell lines
Procedure: To assess whether or not chelate treatment of cancer cells could produce a net modulation in cell growth, the overall growth inhibitory effect of chelates on various cancer cell lines was tested. The concentration of chelate necessary to produce 50% growth inhibition was measured, as determined by detection of the formazan product of cellular degradation of 3-(4,5-dimethylthiazol-2-yl)-5-(3-carboxymethoxyphenyl)-2-(4-sulfophenyl)-2H-tetrazolium, inner salt (MTS).

[14] = system: cancer cell lines (CaCo-2, Du-145, SK-MES, HLaC, C33-A); settings: relative to control cells
[15] = 0-2000 μM, 2 hours, compared to PZ-HPV-7

With `CCOP(=O)([O-])CN1CCN(Cc2ccc3cc(C)ccc3n2)CCN(CP(=O)([O-])OCC)CCN(CP(=O)([O-])OCC)CC1.[Eu+3]` [Eu-QCTME, Eu(III) N-(6-methyl-2-quinolylmethyl)-N′,N″,N′″-tris(methylenephosphonic acid ethyl ester)-1,4,7,10-tetraazacyclododecane] the “Fluorescence/mg Cytoplasm” value [1] was 4548, the “Fluorescence/mg Membrane” value [1] was 2307 and the “fluorescence in the membrane fractions, dose response” value ([2]; 0-2000 μM, 2 hours) was “detectable quantity of fluorescence”. The “fluorescence in the cytoplasm, dose response” value [2, 15] was “significant increases in fluorescence”, the “Fluorescence/mg Cytoplasm” value ([2]; 1 mM chelate, 2 h, Table 4) was 4339 and the “Fluorescence/mg Membrane” value ([2]; 1 mM chelate, 2 h, Table 4) was 2524. For the same compound, the “fluorescence in the membrane fractions, dose response” value ([3]; 0-2000 μM, 2 hours) was “detectable quantity of fluorescence”, the “fluorescence in the cytoplasm, dose response” value [3, 15] was “significant increases in fluorescence” and the “Fluorescence/mg Cytoplasm” value ([3]; 1 mM chelate, 2 h, Table 4) was 4415. The “Fluorescence/mg Membrane” value ([3]; 1 mM chelate, 2 h, Table 4) was 2644, the “Fluorescence/mg Cytoplasm” value ([4]; Normal 1) was 1344 and the “Fluorescence/mg Membrane” value ([4]; Normal 1) was 1348. The “Fluorescence/mg Cytoplasm” value ([4]; Normal 2) was 1369, the “Fluorescence/mg Membrane” value ([4]; Normal 2) was 1374 and the “EuQCTME Cell Binding (fluorescence per well)” value ([5]; 2 min) was 21,983. For the same compound, the “EuQCTME Cell Binding (fluorescence per well)” value ([5]; 5 min) was 11,756, the “EuQCTME Cell Binding (fluorescence per well)” value ([5]; 15 min) was 8,588 and the “EuQCTME Cell Binding (fluorescence per well)” value ([5]; 30 min) was 7,237. For the same compound, the “EuQCTME Cell Binding (fluorescence per well)” value ([5]; 45 min) was 9,513, the “EuQCTME Cell Binding (fluorescence per well)” value ([5]; 60 min) was 5,358 and the “EuQCTME Cell Binding (fluorescence per well)” value ([5]; 120 min) was 8,159. For the same compound, the “EuQCTME Cell Binding (fluorescence per well)” value ([5]; 180 min) was 5,682, the “EuQCTME Cell Binding (fluorescence per well)” value ([5]; 240 min) was 15,625 and the “Totals: Normalized total area under each curve (AUC)” value (shortened to “Totals: Normalized total area”) ([5]; over 240 min) was 28. For the same compound, the “EuQCTME Cell Binding (fluorescence per well)” value ([6]; 2 min) was 2,757, the “EuQCTME Cell Binding (fluorescence per well)” value ([6]; 5 min) was 3,325 and the “EuQCTME Cell Binding (fluorescence per well)” value ([6]; 15 min) was 14,042. The “EuQCTME Cell Binding (fluorescence per well)” value ([6]; 30 min) was 18,535, the “EuQCTME Cell Binding (fluorescence per well)” value ([6]; 45 min) was 18,737 and the “EuQCTME Cell Binding (fluorescence per well)” value ([6]; 60 min) was 20,666. The “EuQCTME Cell Binding (fluorescence per well)” value ([6]; 120 min) was 2,388, the “EuQCTME Cell Binding (fluorescence per well)” value ([6]; 180 min) was 1,598 and the “EuQCTME Cell Binding (fluorescence per well)” value ([6]; 240 min) was 16,682. For the same compound, the “Totals: Normalized total area” value ([6]; over 240 min) was 44, the “EuQCTME Cell Binding (fluorescence per well)” value ([7]; 2 min) was 27,884 and the “EuQCTME Cell Binding (fluorescence per well)” value ([7]; 5 min) was 10,040. For the same compound, the “EuQCTME Cell Binding (fluorescence per well)” value ([7]; 15 min) was 747, the “EuQCTME Cell Binding (fluorescence per well)” value ([7]; 30 min) was 19,868 and the “EuQCTME Cell Binding (fluorescence per well)” value ([7]; 45 min) was 10,987. For the same compound, the “EuQCTME Cell Binding (fluorescence per well)” value ([7]; 60 min) was 3,235, the “EuQCTME Cell Binding (fluorescence per well)” value ([7]; 120 min) was 15,644 and the “EuQCTME Cell Binding (fluorescence per well)” value ([7]; 180 min) was 9,038. For the same compound, the “EuQCTME Cell Binding (fluorescence per well)” value ([7]; 240 min) was 2,506, the “Totals: Normalized total area” value ([7]; over 240 min) was 49 and the “EuQCTME Cell Binding (fluorescence per well)” value ([8]; 2 min) was 15,807. The “EuQCTME Cell Binding (fluorescence per well)” value ([8]; 5 min) was 20,493, the “EuQCTME Cell Binding (fluorescence per well)” value ([8]; 15 min) was 13,704 and the “EuQCTME Cell Binding (fluorescence per well)” value ([8]; 30 min) was 6,300. For the same compound, the “EuQCTME Cell Binding (fluorescence per well)” value ([8]; 45 min) was 10,068, the “EuQCTME Cell Binding (fluorescence per well)” value ([8]; 60 min) was 3,206 and the “EuQCTME Cell Binding (fluorescence per well)” value ([8]; 120 min) was 21,877. The “EuQCTME Cell Binding (fluorescence per well)” value ([8]; 180 min) was 6,510, the “EuQCTME Cell Binding (fluorescence per well)” value ([8]; 240 min) was 2,401 and the “Totals: Normalized total area” value ([8]; over 240 min) was 51. For the same compound, the “EuQCTME Cell Binding (fluorescence per well)” value ([9]; 2 min) was 4,708, the “EuQCTME Cell Binding (fluorescence per well)” value ([9]; 5 min) was 3,391 and the “EuQCTME Cell Binding (fluorescence per well)” value ([9]; 15 min) was 6,806. For the same compound, the “EuQCTME Cell Binding (fluorescence per well)” value ([9]; 30 min) was 11,168, the “EuQCTME Cell Binding (fluorescence per well)” value ([9]; 45 min) was 10,872 and the “EuQCTME Cell Binding (fluorescence per well)” value ([9]; 60 min) was 21,176. For the same compound, the “EuQCTME Cell Binding (fluorescence per well)” value ([9]; 120 min) was 29,389, the “EuQCTME Cell Binding (fluorescence per well)” value ([9]; 180 min) was 31,510 and the “EuQCTME Cell Binding (fluorescence per well)” value ([9]; 240 min) was 4,575. For the same compound, the “localization in adjacent normal tissue” value [10] was “no detectable localization”, the “localization in diseased tissue (adenocarcinoma and pre-malignant neoplasm)” value [10] was “found to localize in diseased tissue” and the “localization by confocal microscopy” value [11] was “predominantly cytoplasmic localization”. For the same compound, the “uptake by confocal microscopy” value [12] was “only a minimal uptake”, the “cancer cell lines significantly inhibited compared to control” value [13] was 8 of 10 cancer cell lines were significantly inhibited and the IC50 ([13]; read-out: Half-maximum growth inhibition concentration, range over examined cancer cell lines, 96 hour continuous exposure) was 16 to 140 µM. The time course cytotoxicity ([13]; up to 48 hours, most malignant cell lines) was “lack of measurable cytotoxicity” and the “time of initial burst of cell-bound fluorescence” value [14] was ≤ 5 min.
